Results as given in ChEMBL document CHEMBL3297738, “Anmindenols A and B, inducible nitric oxide synthase inhibitors from a marine-derived Streptomyces sp” (J Nat Prod, 2014).
pIC50: −log10 of the molar value. Calls of active or inactive are those of the source. No cut-off for these calls is given here.

Assays:
Format in all cases: functional, cell-based
RAW264.7 = test: Inhibition of LPS-induced nitric oxide production in mouse RAW264.7 cells after 20 hrs by Griess assay; conditions: RAW264.7, 20 h
PANC-1 = test: Cytotoxicity against human PANC1 cells up to 100 uM
MiaPaCa = test: Cytotoxicity against human MiaPaCa cells up to 100 uM
A498 = test: Cytotoxicity against human A498 cells up to 100 uM

Row | pIC50 (RAW264.7) | SMILES | Activity (PANC-1) | Activity (MiaPaCa) | Activity (A498)
1 | 4.72 | Cc1ccc2c(c1)/C(=C/C(C)C)C[C@]2(O)CO | inactive | inactive | inactive
2 | 4.64 | Cc1ccc2c(c1)/C(=C/C(C)C)C=C2CO | inactive | inactive | inactive
